The record followed here is PubChem BioAssay AID1552 (Sanford-Burnham Center for Chemical Genomics, 2009).

Activity calls are given as the source filed them. No rule for the calls is given here.

Chain of Ubiquitin-conjugating enzyme E2 N (Homo sapiens) (P61088 whole entry, looked up): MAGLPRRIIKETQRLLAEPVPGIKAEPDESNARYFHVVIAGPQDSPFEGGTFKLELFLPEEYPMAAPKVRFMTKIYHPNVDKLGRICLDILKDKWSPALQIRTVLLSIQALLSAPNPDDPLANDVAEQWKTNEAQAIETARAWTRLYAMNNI

This test has as its target Ubiquitin-conjugating enzyme E2 N (Homo sapiens) (UniProt P61088). The experiment in a line: NMR detection of UBE2N ligand binding – biophysical, purified protein (AID 1552). The note with it: NMR binding to purified UBE2N.
What is called Kd is the constant that tells how readily two partners part at equilibrium. For the molecule `CC(=O)OC[C@@]1(O)C[C@@]23CCC4c5ccoc5CC[C@]4(C)C2CC[C@@H]1C3` (stereo partly specified), the Kd is > 4 mM (inactive).
`O=C(O)/C=C1\NC(=O)c2ccccc21`: the Kd was > 4 mM (inactive).
For the molecule `O=C(c1ccc(F)cc1)N1CCOCC1`, the Kd is > 4 mM (inactive).
With `CC(=O)NC(O)C(=O)c1ccccc1` (stereo unspecified) the figure was > 4 mM (inactive).
On to `COC(=O)c1cncc(C(=O)OC)c1`, for which the Kd is > 4 mM (inactive).
With `C/C=C1\[C@H]2C=C(C)C[C@]1(N)c1ccc(=O)[nH]c1C2` the figure was > 4 mM (inactive); with `Cn1c(O)c(C=NCC2CCNCC2)c(=O)n(C)c1=O`, > 4 mM (inactive).
Regarding `Cn1cnc2c(=O)[nH]cc([N+](=O)[O-])c21`, the Kd was > 4 mM (inactive).
In the case of `CC(C)CCCC(C)[C@H]1CCC2C3CC[C@@H]4C[C@H](O)CC[C@]4(C)C3CC[C@@]21C` (stereo partly specified), the Kd is > 4 mM (inactive).
As to `C=CC(C)(O)CC/C=C(\C)CCC=C(C)C` (stereo unspecified), the Kd is > 4 mM (inactive).
In the case of `O/N=C1/CCCc2nonc21`, the Kd was > 4 mM (inactive).
For the molecule `Cc1cc2nc3c(=O)[nH]c(=O)nc-3n(CC(O)C(O)C(O)CO)c2cc1C` (stereo unspecified), the Kd is > 4 mM (inactive).
For `Cc1nc2ccc(NC(=O)N3CCSCC3)cc2s1`, the Kd is > 4 mM (inactive).
For the molecule `Fc1ccc(-c2n[nH]c(=S)n2CC2CCCO2)cc1` (stereo unspecified), the Kd was > 4 mM (inactive).
As to `Nc1ccncc1`, the Kd was > 4 mM (inactive).
For the molecule `CCC1C(=O)OCC1Cc1cncn1C` (stereo unspecified), the Kd was > 4 mM (inactive).
With `OCCNc1ccccn1` the figure was > 4 mM (inactive).
With `CC(=O)Nc1nnc(-c2ccccn2)o1` the figure was > 4 mM (inactive); with `O=C(Nc1ccon1)c1sc2cc(F)ccc2c1Cl`, > 4 mM (inactive); with `CCc1ccccc1NC(=O)c1cnccn1`, > 4 mM (inactive).
With `CCN1CCC(=NO)CC1` the figure was > 4 mM (inactive).
In the case of `O=C(O)C1CSC(c2ccccc2)N1` (stereo unspecified), the Kd is > 4 mM (inactive).
With `C=C(C)C1Cc2c(ccc(C(=O)O)c2O)O1` (stereo unspecified) the figure was > 4 mM (inactive); with `NC(=O)C1CCN(C(=S)c2cccs2)CC1`, > 4 mM (inactive).
Turning to `COc1ccc2nc(SCC(N)=O)[nH]c2c1`, the Kd is > 4 mM (inactive).
With `CC(C)=CCc1c2c(c(O)c3c(=O)c(O)c(-c4ccccc4)oc13)C=CC(C)(C)O2` the figure was > 4 mM (inactive); with `CC(=O)Nc1cccc(-c2nnc3n2CC(C)S3)c1` (stereo unspecified), > 4 mM (inactive); with `COCCn1c(C)cc(O)cc1=O`, > 4 mM (inactive).
With `Nc1nc2ncc(CNc3ccc(C(=O)N[C@@H](CCC(=O)O)C(=O)O)cc3)nc2c(=O)[nH]1` the figure was > 4 mM (inactive); with `Cc1n[nH]c(C)c1N`, > 4 mM (inactive); with `CCCCn1c(=O)cc(O)c2ccccc21`, > 4 mM (inactive).
With `Cn1cnc2nc3n(c2c1=O)CCC3`, the Kd is > 4 mM (inactive).
With `O=C1NC(=S)S/C1=C/c1ccncc1`, the Kd is > 4 mM (inactive).
With `C=C(C)CSc1nc2nc(C)cc(C)n2n1`, the Kd is > 4 mM (inactive).
As to `CS(=O)(=O)c1ccc2nc(N)sc2c1`, the Kd is > 4 mM (inactive).
As to `CNC(=O)C(=O)NCc1ccc(C)cc1`, the Kd is > 4 mM (inactive).
As for `NC(=O)N1CCc2ccccc21`, the Kd was > 4 mM (inactive).
With `COc1cc(O)c2c(=O)c(O)c(-c3ccc(O)c(O)c3)oc2c1` the figure was > 4 mM (inactive); with `COc1cc([C@@H]2c3cc4c(cc3[C@H](OC(C)=O)[C@H]3COC(=O)[C@@H]23)OCO4)cc(OC)c1OC`, > 4 mM (inactive); with `COc1ccc(/C=N/n2cn[nH]c2=S)cc1`, > 4 mM (inactive).
With `COc1ccc(C(C)=O)c(O)c1` the figure was > 4 mM (inactive); with `O=C1CCC(c2cccs2)=NN1`, > 4 mM (inactive).
With `CCOC(=O)c1cc2ccccc2oc1=O`, the Kd is > 4 mM (inactive).
Take `COc1cc2nc[nH]c(=O)c2cc1OC`: the Kd is > 4 mM (inactive).
Turning to `C=CCCCCCCCCCCCC(O)CC(O)COC(C)=O` (stereo unspecified) (tested in a mixture with another compound), the Kd was > 4 mM (inactive).
On to `C/C(=N\NC(N)=S)C(=O)O`, for which the Kd was > 4 mM (inactive).
Take `C[C@@H]1CC[C@@]23CCC4(C)[C@@](C=CC5[C@@]6(C)CC[C@H](O)C(C)(C)C6CC[C@]54C)(OC2=O)C3[C@H]1C` (stereo partly specified): the Kd was > 4 mM (inactive).
With `Cn1ncc(SCc2ccco2)c(Cl)c1=O` the figure was > 4 mM (inactive); with `Nc1cccc(CC(=S)N2CCOCC2)c1`, > 4 mM (inactive).
`CC(=O)N1CCN(c2ccc(O)cc2)CC1`: the Kd is > 4 mM (inactive).
`O=C(O)Cn1nnn(-c2ccccc2)c1=S`: the Kd is > 4 mM (inactive).
With `Cc1cc(C(=O)Nc2ccccn2)no1` the figure was > 4 mM (inactive).
For the molecule `CN(C)S(=O)(=O)c1ccc(C(=O)NN)cc1`, the Kd was > 4 mM (inactive).
As to `CCNC(=O)CC[C@H](N)C(=O)O`, the Kd was > 4 mM (inactive).
With `NCc1ccc2c(c1)CCO2` the figure was > 4 mM (inactive); with `OCc1nc2ccccc2s1`, > 4 mM (inactive).
For `Cc1nnc(NC(=O)C(C)Sc2nncn2C)s1` (stereo unspecified), the Kd was > 4 mM (inactive).
As for `C=C1CCC2[C@](C)(CO)[C@H](O)CC[C@@]2(C)[C@@H]1C/C=C1/C(=O)OC[C@H]1O` (stereo partly specified), the Kd is > 4 mM (inactive).
Turning to `C=C1C[C@]23C[C@@]1(O)CC[C@H]2[C@@]12C=C[C@H](O)C(C)(C(=O)O1)[C@H]2[C@@H]3C(=O)O`, the Kd is > 4 mM (inactive).
Consider `O=C1CNC(=O)N1c1cccc(Cl)c1`, for which the Kd is > 4 mM (inactive).
In the case of `CCOC(=O)CC1Sc2ccccc2NC1=S` (stereo unspecified), the Kd was > 4 mM (inactive).
`COc1cccc(-c2cc(=O)c3cc(OC)ccc3o2)c1`: the Kd is > 4 mM (inactive).
With `C[C@]12CCC3C(CC[C@]4(O)C[C@@H](O)CC[C@]34C=O)[C@@]1(O)CCC2C1=CC(=O)OC1` (stereo partly specified) the figure was > 4 mM (inactive); with `CC(=O)O[C@H]1CC[C@@]2(C)C(CC[C@]3(C)C2C(=O)C=C2C4[C@@H](C)[C@H](C)CC[C@]4(C(=O)O)CC[C@]23C)C1(C)C` (stereo partly specified), > 4 mM (inactive); with `CC(=O)O[C@H]1C(=O)[C@@]2(C)C([C@H](OC(=O)c3ccccc3)[C@]3(O)C[C@H](OC(=O)[C@H](O)[C@@H](NC(=O)c4ccccc4)c4ccccc4)C(C)=C1C3(C)C)[C@]1(OC(C)=O)CO[C@@H]1C[C@@H]2O` (stereo partly specified), > 4 mM (inactive).
`CC[C@H]1CN2CCc3cc(OC)c(OC)cc3C2C[C@@H]1CC1NCCc2cc(OC)c(OC)cc21` (stereo partly specified): the Kd was > 4 mM (inactive).
For `NC1=NC(=O)C(Cc2cccc([N+](=O)[O-])c2)S1` (stereo unspecified), the Kd is > 4 mM (inactive).
As to `O=C(O)/C=C/C=C/c1ccccc1`, the Kd is > 4 mM (inactive).
For the molecule `NC(=O)C1CCN(C(=S)Nc2ccccc2)CC1`, the Kd was > 4 mM (inactive).
For the molecule `O=C1Nc2ccccc2C1C1(O)C(=O)Nc2ccc(F)cc21` (stereo unspecified), the Kd was > 4 mM (inactive).
With `CCCCC(Nc1n[nH]c(=O)[nH]c1=O)C(=O)O` (stereo unspecified) the figure was > 4 mM (inactive); with `NC1CCN(Cc2ccccc2)CC1`, > 4 mM (inactive).
`Cc1[nH]n(-c2ccccc2)c(=O)c1[N+](=O)[O-]`: the Kd is > 4 mM (inactive).
With `CC(=O)NC(C)C12CC3CC(CC(C(=O)O)(C3)C1)C2` (stereo unspecified) the figure was > 4 mM (inactive); with `O=C(O)CCC(=O)Nc1ccccc1F`, > 4 mM (inactive); with `Cc1nn(C)c2sc(C(=O)O)cc12`, > 4 mM (inactive).
As for `OCc1ccncc1`, the Kd was > 4 mM (inactive).
For the molecule `O=c1c2ccccc2oc2ccc(O)cc12`, the Kd was > 4 mM (inactive).
Regarding `CC1(C)C(=O)C=C[C@@]2(C)C1C[C@@H](O)[C@]1(C)C2CC[C@@]2(C)[C@H](c3ccoc3)OC(=O)[C@H]3O[C@]321` (stereo partly specified), the Kd is > 4 mM (inactive).
Consider `CC(=O)Nc1ccc(NC(=O)N2CCOCC2)cc1`, for which the Kd was > 4 mM (inactive).
With `O=C1CSC(=Nc2cccc(C(F)(F)F)c2)N1` the figure was > 4 mM (inactive).
On to `Nc1cc(=O)[nH]c(=O)n1-c1ccccc1`, for which the Kd was > 4 mM (inactive).
Regarding `CS(=O)(=O)Nc1nnc(Cc2ccccc2)s1`, the Kd was > 4 mM (inactive).
Turning to `Cc1cccc(C)c1NC(=O)/C=C/C(=O)O`, the Kd was > 4 mM (inactive).
As for `C=CCn1c(N)c(C(=O)N2CCOCC2)sc1=S`, the Kd was > 4 mM (inactive).
`O=C(O)c1ccc2c(c1)CCO2`: the Kd is > 4 mM (inactive).
Regarding `O=c1nc(N2CCOCC2)nc2n1CCO2`, the Kd was > 4 mM (inactive).
As to `O=C1CCC(=O)N1c1ccc(F)cc1`, the Kd is > 4 mM (inactive).
In the case of `NC(=O)CSc1nc2ccccc2o1`, the Kd is > 4 mM (inactive).
On to `Nc1nnc(SCc2ccccc2Cl)s1`, for which the Kd is > 4 mM (inactive).
As to `O=C(O)c1cc2ccccc2[nH]1`, the Kd is > 4 mM (inactive).
Regarding `CSc1ccccc1NC(=O)c1ccoc1C`, the Kd is > 4 mM (inactive).
As for `CCOC(=O)c1c(C)nc2c(C#N)cnn2c1C`, the Kd was > 4 mM (inactive).
Regarding `O=C1Cn2c(nc3ccccc32)N1c1ccccc1F`, the Kd was > 4 mM (inactive).
Take `Nc1n[nH]c(=S)n1-c1ccccc1`: the Kd was > 4 mM (inactive).
For `Cc1nc2cc(Cl)ccc2n1CCO`, the Kd was > 4 mM (inactive).
On to `COc1cccc(N2CCNCC2)c1`, for which the Kd was > 4 mM (inactive).
For `CCn1nccc1C(=O)Nc1ccc(Cl)cc1Cl`, the Kd is > 4 mM (inactive).
In the case of `COc1cc2c(cc1OC)-c1cc3ccc(OC)c(OC)c3c[n+]1CC2`, the Kd was > 4 mM (inactive).
In the case of `OCc1cccc2c1OCCO2`, the Kd was > 4 mM (inactive).
For the molecule `CC(=O)CC1(O)C(=O)Nc2ccc(Br)cc21` (stereo unspecified), the Kd was > 4 mM (inactive).
